pIC50: −log10 of the molar value. Where only a bound is given, the exact number is not on record here.

One test concerns the target T1, IRAK4 (Homo sapiens, UniProt Q9NWZ3).
T1 construct: purchased CARNA Bioscience 09-145
T1 sequence (Q9NWZ3 1-460): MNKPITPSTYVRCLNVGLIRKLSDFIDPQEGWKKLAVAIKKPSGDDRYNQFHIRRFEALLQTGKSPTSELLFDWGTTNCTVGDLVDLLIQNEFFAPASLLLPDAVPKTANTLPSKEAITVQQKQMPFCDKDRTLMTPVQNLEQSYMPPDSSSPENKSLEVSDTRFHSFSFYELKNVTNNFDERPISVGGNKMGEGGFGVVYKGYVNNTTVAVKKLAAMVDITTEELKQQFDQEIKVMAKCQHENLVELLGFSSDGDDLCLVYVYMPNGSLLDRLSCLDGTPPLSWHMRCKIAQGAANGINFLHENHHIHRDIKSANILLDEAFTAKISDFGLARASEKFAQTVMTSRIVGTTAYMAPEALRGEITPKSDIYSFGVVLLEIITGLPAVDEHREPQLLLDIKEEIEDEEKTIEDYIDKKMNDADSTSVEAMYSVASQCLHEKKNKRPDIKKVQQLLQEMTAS
The test can be described thus: IRAK-4 activity inhibition assay (Caliper). Format: biochemical. Particulars: 3.5 nM IRAK4, 37 μM ATP, 1.5 μM Peptide 8. The procedure: A 1× kinase base buffer was prepared from 50 mM HEPES, pH 7.5 and 0.0015% Brij-35. A stop buffer was prepared from 100 mM HEPES, pH 7.5, 0.015% Brij-35, 0.2% Coating Reagent #3, and 50 mM EDTA.
Test compound was diluted to 50× of the final desired highest inhibitor concentration in reaction by 100% DMSO. 100 ul of this compound dilution was transferred to a well in a 96-well plate.
Test compound was serially diluted by transferring 30 μl to 60 μl of 100% DMSO in the next well and so forth for a total of 10 concentrations. 100 μl of 100% DMSO was added to two empty wells for no compound control and no enzyme control in the same 96-well plate.
A new 96-well plate was marked as intermediate plate. 5 μl of compound serial dilution was transferred from source plate to the corresponding wells of the intermediate plate. 45 μl of 1× kinase base buffer (KB buffer) was added to each well of the intermediate plate. The intermediate plate was placed for 10 min on a shaker.
5 μl of each well was transferred from the 96-well intermediate plate to a 384-well plate in duplicates. For example, A1 of the 96-well plate is transferred to A1 and A2 of the 384-well plate. A2 of the 96-well plate is transferred to A3 and A4 of the 384-well plate, and so on.
IRAK4 and DTT in 1× kinase base buffer was added. The 2.5× enzyme mix contained 8.8 nM IRAK4 and 5 mM DTT.
Peptide 8, ATP, MgCl2 and MnCl2 were added in the 1× kinase base buffer. The 2.5× peptide mix contained 3.75 μM peptide 8, 92.5 μM ATP, 12.5 mM MgCl2 and 2.5 mM MnCl2.
Assay plate already contained 5 μl of compound in 10% DMSO. Added 10 μl of 2.5× enzyme solution to each well of the 384-well assay plate, except no enzyme control wells. The final concentration of IRAK4 in reaction was 3.5 nM. Added 10 μl of 1× kinase base buffer to no enzyme control wells in the assay plate. Incubated at room temperature for 10 min.
Added 10 μl of 2.5× peptide solution to each well of the 384-well assay plate. The final concentration of Peptide 8 and ATP was 1.5 μM and 37 μM, respectively. Incubated at 28° C. for 40 minutes. Added 25 μl of stop buffer to stop reaction. Collected data on Caliper.
Copied conversion % data from Caliper program. Converted conversion % values to percent inhibition values. Percent inhibition=(max-conversion %)/(max-min)*100, where “max” means the conversion % of DMSO control and “min” means the conversion % of no enzyme control.

The subject of test [1] is TNFα production in THP-1 cells. As to the kind of experiment: LPS induced TNFα production assay in THP-1 cells. Particulars: Homo sapiens, 300 ng/mL LPS. Format: cell-based. How it is done:
(§1) Provided compounds were also assayed in an LPS (Lipopolysacharide) or R848 (TLR-7 agonist) induced cytokine (TNFα and IL8) production assay in THP-1 cells, human peripheral blood mononuclear cells (hPBMC), and whole blood. The exemplary protocol for this assay in THP-1 cells was as follows below.
(§2) THP-1 cells from ATCC (TIB-202) were cultured in RPMI Medium 1640 (Invitrogen, Cat No. A10491-01), 10% fetal bovine serum (Invitrogen, Cat No. 10099141, Lot No. 8172882) containing 100 U/mL Penicillin, 100 μg/mL streptomycin (Invitrogen, Cat No. 15140-122), and 50 uM 2-Mercaptoethanol (Invitrogen, Cat No. 21985023). LPS-EK ultra pure (Invivogen, Cat No. tlrl-peklps) was used to induce IL8 and TNFα production, that was detected in the cell culture supernatant by IL8 HTRF kit (Cisbio, Cat No. 62IL8PEB) and TNFα HTRF kit (Cisbio, Cat No. 62TNFPEB), as per manufacturer instructions. Cells were cultured in 96 well assay plates at 100,000 cells per well, and compounds diluted in final 0.3% DMSO were pre-incubated with cells for 1 hour prior to stimulation with 300 ng/mL LPS. Cytokine production in cell supernatant was measured at 5 hours for TNFα and IL8 production, and for 16 hours for IL8 production and assessment of cell viability.

Test [2] deals with IL8 production in THP-1 cells. As to the kind of experiment: LPS induced IL8 production assay in THP-1 cells. Format: cell-based. Particulars: Homo sapiens, 300 ng/mL LPS. How it is done:
as §1, §2

In test [3] the test system is TNF-α production in whole blood. As to the kind of experiment: In vitro R848-induced TNF-α production in whole blood. It counts as cell-based. Particulars: Homo sapiens, R848 1 uM.

Take `CN(C)[C@H]1CC[C@H](Oc2nc(Nc3ccccc3)nc3sc4c(c23)[C@@H](CC(N)=O)CC4)CC1` [Compound I-24, 2-[(3R)-10-(phenylamino)-12-[[(1r,4r)-4-(dimethylamino)cyclohexyl]oxy]-7-thia-9,11-diazatricyclo[6.4.0.0[2,6]]dodeca-1(8),2(6),9,11-tetraen-3-yl]acetamide]: the negative-log IC50 (pIC50) is not below 5.30 at IRAK4, not below 6.30 in test [1] and not below 6.30 in test [2].

With `CN1CCN(c2ccc(Nc3nc(O[C@H]4CC[C@H](N(C)C)CC4)c4c5c(sc4n3)CC[C@@H]5CC(N)=O)cc2)CC1` [Compound I-23], the results for the pIC50 (against IRAK4; in test [1]; in test [2]) were not below 5.30, 5.30 to 6.00 and not above 5.30, respectively.

In the case of `c1nocc1Nc1nc(N[C@H]2CC[C@H](N3CCOCC3)CC2)c2c3c(sc2n1)CCC3` [Compound I-77], the pIC50 against IRAK4 is not below 5.30; in test [1], not below 6.30; in test [2], not below 6.30.

On to `Cn1cc(Nc2nc(O[C@H]3CC[C@H](N4CCOCC4)CC3)c3c4c(sc3n2)CC[C@@H]4CC(N)=O)cn1` [Compound I-25], for which the pIC50 against IRAK4 is not below 5.30; in test [3] it was not above 6.00.

For the molecule `Cn1cc(Nc2nc(O[C@H]3CC[C@H](N4CCOCC4)CC3)c3c4c(sc3n2)CCC4)cn1` [Compound I-73, N-(1-methyl-1H-pyrazol-4-yl)-12-[[4-(morpholin-4-yl)cyclohexyl]oxy]-7-thia-9,11-diazatricyclo[6.4.0.0[2,6]]dodeca-1(8),2(6),9,11-tetraen-10-amine], the pIC50 against IRAK4 was not below 5.30; in test [1], 6.00 to 6.30; in test [2], not below 6.30.

Turning to `CN1CCN(c2ccc(Nc3nc(O[C@H]4CC[C@H](N(C)C)CC4)c4c5c(sc4n3)CCC5CC(N)=O)cc2)CC1` (stereo partly shown) [Compound I-19, 2-(4-(((1r,4r)-4-(dimethylamino)cyclohexyl)oxy)-2-((4-(4-methylpiperazin-1-yl)phenyl)amino)-6,7-dihydro-5H-cyclopenta[4,5]thieno[2,3-d]pyrimidin-5-yl)acetamide], the pIC50 is not below 5.30 on IRAK4 and not above 5.30 in test [2].

For `Cn1cc(Nc2nc(N[C@H]3CC[C@H](N4CCOCC4)CC3)c3c4c(sc3n2)CCC4)cn1` [Compound I-74, 10-N-(1-methyl-1H-pyrazol-4-yl)-12-N-[4-(morpholin-4-yl)cyclohexyl]-7-thia-9,11-diazatricyclo[6.4.0.0[2,6]]dodeca-1(8),2(6),9,11-tetraene-10,12-diamine], the results for the pIC50 (against IRAK4; in test [1]; in test [2]) were not below 5.30, not below 6.30 and not below 6.30, respectively.

For `Cn1cc(Nc2nc(N[C@H]3CC[C@H](N(C)C)CC3)c3c4c(sc3n2)CCC4)cn1` [Compound I-72, 12-N-[4-(dimethylamino)cyclohexyl]-10-N-(1-methyl-1H-pyrazol-4-yl)-7-thia-9,11-diazatricyclo[6.4.0.0[2,6]]dodeca-1(8),2(6),9,11-tetraene-10,12-diamine], the pIC50 at IRAK4 is not below 5.30; in test [1] it was not below 6.30; in test [2], not below 6.30.

For the molecule `Cn1cc(Nc2nc(O[C@H]3CC[C@H](N(C)C)CC3)c3c4c(sc3n2)CC[C@@H]4CC(N)=O)cn1` [Compound I-22, 2-[(3R)-12-[[4-(dimethylamino)cyclohexyl]oxy]-10-[(1-methyl-1H-pyrazol-4-yl)amino]-7-thia-9,11-diazatricyclo[6.4.0.0[2,6]]dodeca-1(8),2(6),9,11-tetraen-3-yl]acetamide], the pIC50 on IRAK4 is not below 5.30; in test [3] it was not above 6.00.

On to `c1nscc1Nc1nc(N[C@H]2CC[C@H](N3CCOCC3)CC2)c2c3c(sc2n1)CCC3` [Compound I-76], for which the results for the pIC50 (against IRAK4; in test [1]; in test [2]) were not below 5.30, not below 6.30 and not below 6.30, respectively.

Regarding `Cc1ccc(Nc2nc(N[C@H]3CC[C@H](N4CCOCC4)CC3)c3c4c(sc3n2)CCC4)cc1` [Compound I-6, N4-((1r,4r)-4-morpholinocyclohexyl)-N2-(p-tolyl)-6,7-dihydro-5H-cyclopenta[4,5]thieno[2,3-d]pyrimidine-2,4-diamine], the pIC50 against IRAK4 was 4.30 to 4.70.

On to `Cn1cc(Nc2nc(O[C@H]3CC[C@H](N(C)C)CC3)c3c4c(sc3n2)CCC4)cn1` [Compound I-14, 12-[[4-(dimethylamino)cyclohexyl]oxy]-N-(1-methyl-1H-pyrazol-4-yl)-7-thia-9,11-diazatricyclo[6.4.0.0[2,6]]dodeca-1(8),2(6),9,11-tetraen-10-amine], for which the results for the pIC50 (against IRAK4; in test [1]; in test [2]) were not below 5.30, not below 6.30 and not below 6.30, respectively.

As to `Cn1cc(Nc2nc(N[C@H]3CC[C@H](O)CC3)c3c4c(sc3n2)CCC4)cn1` [Compound I-16, 4-([10-[(1-methyl-1H-pyrazol-4-yl)amino]-7-thia-9,11-diazatricyclo[6.4.0.0[2,6]]dodeca-1(8),2(6),9,11-tetraen-12-yl]amino)cyclohexan-1-ol], the pIC50 against IRAK4 was not below 5.30.

In turn, `CN1CCC(c2ccc(Nc3nc(N[C@H]4CC[C@H](N(C)C)CC4)c4c5c(sc4n3)CCC5)cc2)CC1` [Compound I-67, N4-((1r,4r)-4-(dimethylamino)cyclohexyl)-N2-(4-(1-methylpiperidin-4-yl)phenyl)-6,7-dihydro-5H-cyclopenta[4,5]thieno[2,3-d]pyrimidine-2,4-diamine] showed a pIC50 against IRAK4 not below 5.30.

Turning to `CN(C)[C@H]1CC[C@H](Nc2nc(Nc3ccccc3)nc3sc4c(c23)CCC4)CC1` [Compound I-75, 12-N-[4-(dimethylamino)cyclohexyl]-10-N-phenyl-7-thia-9,11-diazatricyclo[6.4.0.0[2,6]]dodeca-1(8),2(6),9,11-tetraene-10,12-diamine], the pIC50 is not below 5.30 at IRAK4, 5.30 to 6.00 in test [1] and 5.30 to 6.00 in test [2].

The molecule `c1c[nH]c(Nc2nc(N[C@H]3CC[C@H](N4CCOCC4)CC3)c3c4c(sc3n2)CCCC4)n1` [Compound I-12, 5-N-(1H-imidazol-2-yl)-3-N-[4-(morpholin-4-yl)cyclohexyl]-8-thia-4,6-diazatricyclo[7.4.0.0[2,7]]trideca-1(9),2(7),3,5-tetraene-3,5-diamine] gave a negative-log IC50 (pIC50) on IRAK4 of 4.30 to 4.70.

A word on the pIC50: it is the IC50 on a negative log10 scale, so that one unit is a factor of ten.
